Assay results reported in patent publication US20260053811A1, “METHODS OF TREATING HYPERTENSION IN OBESE SUBJECTS” (Mineralys Therapeutics, Inc., priority 2022, published 2026).

System: hypertensive subjects
Experiment: Seated automated office blood pressure (AOBP) in randomized, placebo-controlled, dose-ranging study
Format: in vivo, human
Protocol: A randomized, double-blinded, placebo-controlled, dose-ranging, multicenter study was conducted to evaluate the effect of orally administered Compound A HBr on blood pressure for the treatment of hypertension in male and female subjects ≥18 years of age.
The study consists of two parts. For enrollment into Part 1 of the study, a subject's value of plasma renin activity (PRA) must be ≤1 ng/mL/h based on morning measurement. If the value of PRA >1 ng/mL/h based on morning measurement, then subjects may be eligible to enter Part 2 of the study.
For Part 1, 163 enrolled subjects ≥18 years of age were randomized into 6 equal treatment groups (1:1:1:1:1:1) to 12.5 mg BID, 25 mg BID, 12.5 mg QD, 50 mg QD, 100 mg QD, or placebo. After a review of interim clinical data, the 2 lowest dose levels (12.5 mg QD and 12.5 mg BID) were stopped for future randomization due to a lack of consistent meaningful reduction of blood pressure, but the patients randomized to that point remained in the study through completion. Thus, after the review of interim clinical data, subjects were randomized into 4 equal treatment groups (1:1:1:1) to 25 mg BID, 50 mg QD, 100 mg QD, or placebo.
For Part 2, 36 enrolled subjects ≥18 years of age were randomized (5:1) to either 100 mg QD Compound A HBr or placebo such that the Compound A HBr treatment group consisted of approximately 30 subjects and the placebo treatment group will consist of approximately 6 subjects.
Subjects orally administered the assigned study drug (Compound A HBr or placebo) according to the assigned dosing regimen for 8 weeks beginning on Study Day 1. All subjects in Part 1 (regardless of dosing group) received BID dosing to preserve the integrity of the blind; active drug is administered as the morning dose for all QD dose groups. Subjects returned to the research facility or were seen by the clinical investigator or approved home health care professional at the end of Study Weeks 1, 2, 3, 4, 5, 6, 7, and 8 (±2 days) for protocol-defined efficacy and safety assessments and procedures, assessment of adverse events (AEs), and confirmation of compliance with study drug usage. Subjects also completed a telephone visit and blood pressure (BP) check at home approximately 3 days post last dose of study drug. Subjects attended up to 14 full clinic visits, including a pre-Screening visit, a Screening/start of Placebo Run-in visit, a second visit during Placebo Run-in, a clinic visit to initiate the ABPM procedure, a Randomization visit, 8 weekly visits during double-blind treatment, and an end-of-study visit scheduled 4 weeks after the last study treatment for final efficacy and safety assessments.
An automated oscillometric sphygmomanometer device was used to measure the subjects' systolic and diastolic blood pressure in office after approximately 5 minutes of rest in the seated position.
The primary endpoint is the change in office-measured (mean of last 2 of 5 unattended measurements using an automated oscillometric sphygmomanometer device after approximately 5 minutes of rest in the seated position) systolic blood pressure (SBP) from baseline to the end of Study Week 8.
Secondary endpoints of this study were: • (a) Change in 24-hour ambulatory blood pressure monitoring (ABPM) parameters (systolic and diastolic) from baseline to the end of Study Week 7. • (b) Change in office-measured SBP from baseline to the end of Study Weeks 1, 2, 3, 4, 5, 6, and 7. • (c) Change in office-measured diastolic blood pressure (DBP) from baseline to the end of Study Weeks 1, 2, 3, 4, 5, 6, 7, and 8. • (d) Proportion of subjects who achieve office-measured BP of ≤130/80 mm Hg by the end of Study Week 8.

[1] = Part 2, 100 mg QD, Thiazide Diuretic Use at Baseline Yes
[2] = Part 2, 100 mg QD, subgroup ACEi/ARBs No (n 1)
[3] = Part 2, 100 mg QD, subgroup ACEi/ARBs Yes
[4] = Part 2, 100 mg QD, subgroup AHTs 2
[5] = Part 2, 100 mg QD, subgroup AHTs ≥3
[6] = Part 2, 100 mg QD, subgroup Age 65-79 yr
[7] = Part 2, 100 mg QD, subgroup Age <65 yr
[8] = Part 2, 100 mg QD, subgroup Age ≥80 yr (n 1)
[9] = Part 2, 100 mg QD, subgroup BMI 25-30 kg/m^2
[10] = Part 2, 100 mg QD, subgroup BMI <25 kg/m^2
[11] = Part 2, 100 mg QD, subgroup BMI >30 kg/m^2
[12] = Part 2, 100 mg QD, subgroup PRA 1-5 ng/mL/hr
[13] = Part 2, 100 mg QD, subgroup PRA >5 ng/mL/hr
[14] = Part 2, 100 mg QD, subgroup Race Black or AA
[15] = Part 2, 100 mg QD, subgroup Race Other
[16] = Part 2, 100 mg QD, subgroup Seated SBP Tertile High
[17] = Part 2, 100 mg QD, subgroup Seated SBP Tertile Low
[18] = Part 2, 100 mg QD, subgroup Seated SBP Tertile Middle
[19] = Part 2, 100 mg QD, subgroup Sex Female
[20] = Part 2, 100 mg QD, subgroup Sex Male
[21] = pooled 50 mg QD, 100 mg QD, 12.5 mg BID and 25 mg BID cohorts (N=103)
[22] = pooled 50 mg QD, 100 mg QD, 12.5 mg BID, 25 mg BID cohorts, week 8

In the case of `CC(=O)N[C@H]1CC[C@H](NC(=O)CN2CCN(c3nncc(-c4ccc(C)cc4)n3)CC2)CC1` [Compound A HBr], the “Mean Automated Office-Measured Systolic Blood Pressure at Wk 8” value [1] is reported as 131.72 mmHg, the “Mean Change from Baseline at Week 8 in Automated Office-Measured Systolic Blood Pressure” value [1] is reported as −10.50 mmHg and the “Automated Office-Measured Diastolic Blood Pressure, Wk 8, mean” value [2] is reported as 87.00 mmHg. The “Change from Baseline at Week 8 in Automated Office-Measured Diastolic Blood Pressure, mean” value [2] was 0.00 mmHg, the “Automated Office-Measured Diastolic Blood Pressure, Wk 8, mean” value [3] was 71.66 mmHg and the “Change from Baseline at Week 8 in Automated Office-Measured Diastolic Blood Pressure, mean” value [3] was −5.88 mmHg. The “Automated Office-Measured Diastolic Blood Pressure, Wk 8, mean” value [4] was 71.58 mmHg, the “Change from Baseline at Week 8 in Automated Office-Measured Diastolic Blood Pressure, mean” value [4] was −6.21 mmHg and the “Automated Office-Measured Diastolic Blood Pressure, Wk 8, mean” value [5] was 73.18 mmHg. The “Change from Baseline at Week 8 in Automated Office-Measured Diastolic Blood Pressure, mean” value [5] was −4.77 mmHg, the “Automated Office-Measured Diastolic Blood Pressure, Wk 8, mean” value [6] was 72.38 mmHg and the “Change from Baseline at Week 8 in Automated Office-Measured Diastolic Blood Pressure, mean” value [6] was −3.83 mmHg. For the same molecule, the “Automated Office-Measured Diastolic Blood Pressure, Wk 8, mean” value [7] was 72.50 mmHg, the “Change from Baseline at Week 8 in Automated Office-Measured Diastolic Blood Pressure, mean” value [7] was −10.38 mmHg and the “Automated Office-Measured Diastolic Blood Pressure, Wk 8, mean” value [8] was 65.00 mmHg. For the same molecule, the “Change from Baseline at Week 8 in Automated Office-Measured Diastolic Blood Pressure, mean” value [8] was −7.00 mmHg, the “Automated Office-Measured Diastolic Blood Pressure, Wk 8, mean” value [9] was 70.40 mmHg and the “Change from Baseline at Week 8 in Automated Office-Measured Diastolic Blood Pressure, mean” value [9] was −6.10 mmHg. For the same molecule, the “Automated Office-Measured Diastolic Blood Pressure, Wk 8, mean” value [10] was 77.00 mmHg, the “Change from Baseline at Week 8 in Automated Office-Measured Diastolic Blood Pressure, mean” value [10] was −1.25 mmHg and the “Automated Office-Measured Diastolic Blood Pressure, Wk 8, mean” value [11] was 73.46 mmHg. For the same molecule, the “Change from Baseline at Week 8 in Automated Office-Measured Diastolic Blood Pressure, mean” value [11] was −5.88 mmHg, the “Automated Office-Measured Diastolic Blood Pressure, Wk 8, mean” value [12] was 71.93 mmHg and the “Change from Baseline at Week 8 in Automated Office-Measured Diastolic Blood Pressure, mean” value [12] was −2.14 mmHg. The “Automated Office-Measured Diastolic Blood Pressure, Wk 8, mean” value [13] was 71.29 mmHg, the “Change from Baseline at Week 8 in Automated Office-Measured Diastolic Blood Pressure, mean” value [13] was −11.79 mmHg and the “Automated Office-Measured Diastolic Blood Pressure, Wk 8, mean” value [14] was 72.00 mmHg. For the same molecule, the “Change from Baseline at Week 8 in Automated Office-Measured Diastolic Blood Pressure, mean” value [14] was −4.67 mmHg, the “Automated Office-Measured Diastolic Blood Pressure, Wk 8, mean” value [15] was 72.21 mmHg and the “Change from Baseline at Week 8 in Automated Office-Measured Diastolic Blood Pressure, mean” value [15] was −5.94 mmHg. The “Automated Office-Measured Diastolic Blood Pressure, Wk 8, mean” value [16] was 72.09 mmHg, the “Change from Baseline at Week 8 in Automated Office-Measured Diastolic Blood Pressure, mean” value [16] was −4.14 mmHg and the “Automated Office-Measured Diastolic Blood Pressure, Wk 8, mean” value [17] was 72.33 mmHg. The “Change from Baseline at Week 8 in Automated Office-Measured Diastolic Blood Pressure, mean” value [17] was −6.78 mmHg, the “Automated Office-Measured Diastolic Blood Pressure, Wk 8, mean” value [18] was 72.10 mmHg and the “Change from Baseline at Week 8 in Automated Office-Measured Diastolic Blood Pressure, mean” value [18] was −6.40 mmHg. For the same molecule, the “Automated Office-Measured Diastolic Blood Pressure, Wk 8, mean” value [19] was 70.75 mmHg, the “Change from Baseline at Week 8 in Automated Office-Measured Diastolic Blood Pressure, mean” value [19] was −6.28 mmHg and the “Automated Office-Measured Diastolic Blood Pressure, Wk 8, mean” value [20] was 75.00 mmHg. For the same molecule, the “Change from Baseline at Week 8 in Automated Office-Measured Diastolic Blood Pressure, mean” value [20] was −4.50 mmHg, the “Blood pressure reduction by background thiazide diuretic” value (across dosing cohorts) was “particularly effective at reducing the blood pressure of individuals who were receiving a thiazide diuretic” and the “Blood pressure reduction by body mass index (BMI)” value (across dosing cohorts) was “particularly effective at reducing the blood pressure of individuals with a body mass index (BMI) of greater than 30”. For the same molecule, the “Subjects with change in BPsys >−15 mmHg” value [21] was 41%, the “Subjects with change in BPsys >−25 mmHg” value [21] was 25% and the “Subjects achieving >−23 mmHg fall in systolic blood pressure” value [22] was 25%. The “Subjects achieving ≥15 mmHg fall in systolic blood pressure” value [22] was 41%.
